Key:
[1] = target: T1, Carnitine O-palmitoyltransferase 2, mitochondrial (Homo sapiens, UniProt P23786); experiment: (§1) SUPPLEMENTARY: Inhibition of Carnitine palmitoyltransferase 2
T1 sequence (P23786 whole entry): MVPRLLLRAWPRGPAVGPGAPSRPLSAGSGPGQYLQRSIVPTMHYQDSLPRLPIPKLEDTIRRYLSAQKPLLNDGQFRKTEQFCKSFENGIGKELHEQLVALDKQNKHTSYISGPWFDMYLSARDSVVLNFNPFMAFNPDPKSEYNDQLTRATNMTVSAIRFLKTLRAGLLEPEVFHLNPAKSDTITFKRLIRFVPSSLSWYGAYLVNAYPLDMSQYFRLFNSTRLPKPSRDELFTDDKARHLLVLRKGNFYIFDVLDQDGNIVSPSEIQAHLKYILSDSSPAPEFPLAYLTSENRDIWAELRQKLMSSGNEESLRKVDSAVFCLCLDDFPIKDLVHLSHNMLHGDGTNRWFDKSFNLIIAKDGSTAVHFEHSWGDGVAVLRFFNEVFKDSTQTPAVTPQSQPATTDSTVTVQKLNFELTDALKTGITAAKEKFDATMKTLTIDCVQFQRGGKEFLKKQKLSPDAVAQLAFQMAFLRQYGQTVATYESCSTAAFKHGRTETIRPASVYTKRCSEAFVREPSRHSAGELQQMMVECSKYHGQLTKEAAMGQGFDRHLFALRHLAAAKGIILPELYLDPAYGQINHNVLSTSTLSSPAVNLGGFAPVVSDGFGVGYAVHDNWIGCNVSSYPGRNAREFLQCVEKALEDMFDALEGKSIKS

[2] = target: T2, Carnitine O-palmitoyltransferase 2, mitochondrial (Rattus norvegicus, UniProt P18886); experiment: as §1
T2 sequence (P18886 whole entry): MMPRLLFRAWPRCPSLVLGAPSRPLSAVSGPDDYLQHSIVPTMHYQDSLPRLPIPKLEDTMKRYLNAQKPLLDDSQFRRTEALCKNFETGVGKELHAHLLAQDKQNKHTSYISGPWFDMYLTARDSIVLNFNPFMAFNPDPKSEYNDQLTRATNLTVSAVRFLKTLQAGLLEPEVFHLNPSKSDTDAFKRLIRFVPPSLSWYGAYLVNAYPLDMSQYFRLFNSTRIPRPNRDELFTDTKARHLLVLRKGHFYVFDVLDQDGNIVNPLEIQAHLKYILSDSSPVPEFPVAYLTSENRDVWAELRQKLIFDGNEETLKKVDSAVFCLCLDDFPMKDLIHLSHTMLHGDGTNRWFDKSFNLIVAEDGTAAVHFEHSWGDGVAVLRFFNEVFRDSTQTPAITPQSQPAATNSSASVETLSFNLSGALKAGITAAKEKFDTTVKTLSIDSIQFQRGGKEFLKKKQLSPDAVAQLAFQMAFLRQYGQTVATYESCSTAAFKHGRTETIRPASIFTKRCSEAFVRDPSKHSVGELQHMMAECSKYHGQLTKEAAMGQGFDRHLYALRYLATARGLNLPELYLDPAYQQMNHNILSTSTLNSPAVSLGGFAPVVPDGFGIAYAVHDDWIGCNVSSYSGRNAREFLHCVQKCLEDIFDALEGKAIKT

[3] = target: T3, Carnitine O-palmitoyltransferase 1, liver isoform (Rattus norvegicus, UniProt P32198); experiment: (§2) SUPPLEMENTARY: Inhibition of Carnitine palmitoyltransferase 1, liver isoform
T3 sequence (P32198 whole entry): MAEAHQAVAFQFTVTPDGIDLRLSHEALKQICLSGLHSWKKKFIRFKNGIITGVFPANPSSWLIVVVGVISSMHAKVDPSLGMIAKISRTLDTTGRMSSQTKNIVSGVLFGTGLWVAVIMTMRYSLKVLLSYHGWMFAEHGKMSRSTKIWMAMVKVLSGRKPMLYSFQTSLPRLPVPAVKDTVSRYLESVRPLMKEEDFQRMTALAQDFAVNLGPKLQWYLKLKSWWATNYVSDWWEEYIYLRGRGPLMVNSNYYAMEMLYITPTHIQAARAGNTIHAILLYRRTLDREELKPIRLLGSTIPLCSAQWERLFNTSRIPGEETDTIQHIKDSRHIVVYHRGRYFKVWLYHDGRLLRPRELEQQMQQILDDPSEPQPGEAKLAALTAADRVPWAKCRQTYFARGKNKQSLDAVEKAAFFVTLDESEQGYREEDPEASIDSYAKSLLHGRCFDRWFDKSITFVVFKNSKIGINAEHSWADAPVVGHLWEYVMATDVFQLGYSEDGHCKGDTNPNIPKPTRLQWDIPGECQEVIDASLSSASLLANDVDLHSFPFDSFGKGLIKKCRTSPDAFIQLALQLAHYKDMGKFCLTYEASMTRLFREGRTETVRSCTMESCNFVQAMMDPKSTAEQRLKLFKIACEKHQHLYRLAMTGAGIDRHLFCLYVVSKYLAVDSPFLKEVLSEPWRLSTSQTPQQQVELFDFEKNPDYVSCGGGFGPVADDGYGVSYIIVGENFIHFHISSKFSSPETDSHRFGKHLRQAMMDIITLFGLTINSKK

[4] = target: T4, Carnitine O-palmitoyltransferase 1, muscle isoform (Homo sapiens, UniProt Q92523); experiment: SUPPLEMENTARY: Inhibition of Carnitine palmitoyltransferase 1, muscle isoform; parameters: species or system Muscle tissue
T4 sequence (Q92523 whole entry): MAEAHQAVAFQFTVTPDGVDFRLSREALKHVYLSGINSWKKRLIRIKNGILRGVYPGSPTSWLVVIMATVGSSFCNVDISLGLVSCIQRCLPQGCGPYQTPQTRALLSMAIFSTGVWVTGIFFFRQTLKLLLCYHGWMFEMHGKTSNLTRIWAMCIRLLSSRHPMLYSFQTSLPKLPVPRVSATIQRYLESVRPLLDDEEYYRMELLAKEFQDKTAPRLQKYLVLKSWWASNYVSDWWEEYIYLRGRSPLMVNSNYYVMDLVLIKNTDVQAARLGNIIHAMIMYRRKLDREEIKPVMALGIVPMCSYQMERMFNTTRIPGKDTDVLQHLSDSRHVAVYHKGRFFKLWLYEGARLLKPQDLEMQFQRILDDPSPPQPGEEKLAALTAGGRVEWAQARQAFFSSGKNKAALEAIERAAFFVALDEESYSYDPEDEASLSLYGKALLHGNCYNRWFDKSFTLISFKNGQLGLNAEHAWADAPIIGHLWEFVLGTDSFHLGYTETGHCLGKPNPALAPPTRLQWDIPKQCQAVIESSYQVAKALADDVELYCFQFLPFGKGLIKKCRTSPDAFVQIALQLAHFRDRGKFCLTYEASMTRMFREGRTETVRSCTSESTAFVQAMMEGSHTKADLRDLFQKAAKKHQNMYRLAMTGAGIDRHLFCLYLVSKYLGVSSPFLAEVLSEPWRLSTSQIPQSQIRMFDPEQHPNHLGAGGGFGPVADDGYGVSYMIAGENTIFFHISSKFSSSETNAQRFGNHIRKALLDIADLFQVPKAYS

[5] = target: T5, Carnitine O-palmitoyltransferase 1, liver isoform (Homo sapiens, UniProt P50416); experiment: as §2
T5 sequence (P50416 whole entry): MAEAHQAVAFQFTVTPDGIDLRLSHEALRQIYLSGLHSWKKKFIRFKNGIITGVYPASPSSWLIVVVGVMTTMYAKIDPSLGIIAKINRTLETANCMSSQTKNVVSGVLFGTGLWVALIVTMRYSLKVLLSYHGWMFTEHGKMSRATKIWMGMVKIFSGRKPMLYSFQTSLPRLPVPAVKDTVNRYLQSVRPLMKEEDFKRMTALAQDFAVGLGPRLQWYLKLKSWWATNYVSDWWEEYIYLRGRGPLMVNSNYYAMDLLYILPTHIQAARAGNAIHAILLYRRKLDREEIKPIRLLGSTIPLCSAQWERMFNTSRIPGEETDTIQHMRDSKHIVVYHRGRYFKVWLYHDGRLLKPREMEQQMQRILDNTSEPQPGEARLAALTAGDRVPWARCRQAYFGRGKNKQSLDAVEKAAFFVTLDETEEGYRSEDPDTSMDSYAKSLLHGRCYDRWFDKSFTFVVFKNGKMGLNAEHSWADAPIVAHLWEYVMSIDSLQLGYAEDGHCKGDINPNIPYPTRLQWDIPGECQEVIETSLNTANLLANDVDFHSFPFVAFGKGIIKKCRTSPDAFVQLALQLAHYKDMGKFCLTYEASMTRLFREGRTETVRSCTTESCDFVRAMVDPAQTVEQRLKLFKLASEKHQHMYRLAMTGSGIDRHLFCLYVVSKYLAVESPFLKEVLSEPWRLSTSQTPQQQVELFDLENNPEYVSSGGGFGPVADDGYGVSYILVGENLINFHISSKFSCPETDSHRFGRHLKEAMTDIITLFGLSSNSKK

Compound	IC50 [1] [µM]	IC50 [2] [µM]	IC50 [3] [µM]	IC50 [4] [µM]	IC50 [5] [µM]
COC(=O)c1cccc(-c2csc([C@H]3CCCCN3C(=O)COc3ccccc3)n2)n1	16.8	> 100	0.172	7.62	
O=C(COc1ccccc1)N1CCCCC1c1ncc(-c2cccc([N+](=O)[O-])c2)s1 (configuration not stated)	> 100		0.958	> 100	0.206
O=C(COc1ccccc1)N1CCCC[C@@H]1c1csc(-c2cccnc2)n1	> 100	52.2	0.0627	4.16	
O=C(O)c1cccc(-c2csc([C@H]3CCCCN3C(=O)COc3ccccc3)n2)n1	81.3	99.1	0.301	19.5	
O=C(COc1ccccc1)N1CCCC[C@@H]1c1csc(Cc2ccc(Cl)cc2)n1	> 100	> 100	2.9	> 100	
O=C(COc1ccccc1)N1CCCC[C@@H]1c1nc(-c2ccc3c(c2)OCO3)cs1	56	> 100	0.224	> 100	
N#Cc1cccc(-c2csc([C@H]3CCCCN3C(=O)COc3ccccc3)n2)c1	6.55	68.1	0.128	8.1	
O=C(COc1ccccc1)N1CCCC[C@@H]1c1nc(-c2ccc(O)cc2)cs1	> 100	> 100	0.227	34.5	
O=C(COc1ccccc1)N1CCCC[C@@H]1c1csc(-c2ccncc2)n1	> 100	79.6	0.219	> 100	
COC(=O)c1ccc(-c2nc([C@H]3CCCCN3C(=O)COc3ccccc3)cs2)cc1	> 100	> 100	1.21	> 100	
O=C(COc1ccccc1)N1CCCC[C@@H]1c1csc(-c2cnccn2)n1	32.7	88.9	0.589	59.8	
O=C(COc1ccccc1)N1CCCC[C@@H]1c1csc(-c2ccc(F)cc2)n1	> 100	> 100	0.44	> 100	
O=C1CN(NC(=O)c2cccc(-c3n[nH]c([C@H]4CCCCN4C(=O)COc4ccccc4)n3)c2)C(=O)N1	19.4		0.574	> 100	0.273
O=C(COc1ccccc1)N1CCCC[C@@H]1c1csc(C2COc3ccccc3O2)n1 (some centres not stated)	> 100	> 100	3.62	> 100	
O=C(COc1ccccc1)N1CCCCC1c1cc(=O)n(-c2ccc(F)cc2)[nH]1 (configuration not stated)	> 100		1.58	> 100	0.281
CC(=O)Nc1ccc(-c2csc([C@H]3CCCCN3C(=O)COc3ccccc3)n2)cc1	3.68	> 100	0.12	> 100	
COc1ccc(Cl)cc1S(=O)(=O)N1COc2c(OC)cc(C(=O)Nc3ccc(C(=O)O)cc3)cc21	0.782	2.12		29	0.53
O=C(COc1ccccc1)N1CCCC[C@@H]1c1nc(-c2ccc(Br)s2)cs1	47.9	> 100	1.36	5.66	
O=C(COc1ccccc1)N1CCCC[C@@H]1c1nc(-c2ccc(O)cc2)no1	75.5		0.124	39.2	0.0732
O=C(O)c1ccc(-c2nc([C@H]3CCCCN3C(=O)COc3ccccc3)cs2)cc1	5.1	> 100	2.23	> 100	
O=C([C@H]1CCCCN1C(=O)COc1ccccc1)N1CCc2ccc([N+](=O)[O-])cc2C1	1.62	2.85		> 100	0.648
Cc1cc(C)cc(S(=O)(=O)N2CCOc3ccc(C(=O)Nc4ccc(C(=O)O)c(F)c4)cc32)c1	2.04		0.0704	2.71	0.253
O=C(COc1ccccc1)N1CCCC[C@@H]1c1csc(-c2ccc(C(F)(F)F)cn2)n1	49.8	> 100	2	> 100	
O=C1Cc2cc(-c3csc([C@H]4CCCCN4C(=O)COc4ccccc4)n3)ccc2N1	0.686	42.8	0.154	> 100	
COc1ccc(C)cc1S(=O)(=O)N1CCCc2ccc(C(=O)Nc3ccc(CC(=O)O)cc3)cc21			0.186		

From ChEMBL document CHEMBL3431459, “Roche carnitine palmitoyltransferase modulator screening data (supplementary data associated with the publication CHEMBL2216752)”
